Calls of active or inactive are those of the source. No cut-off for these calls is given here.
Experiments:
Mus musculus [1] = experiment: Cognition enhancing effect in albino Swiss CD-1 mouse assessed as reversal of scopolamine-induced amnesia at 20 to 30 mg/kg, ip treated 30 mins prior to acquisition trial followed by scopolamine challenge immediately after acquisition trial by passive avoidance test (reference value: 39.31 +/- 4.01 secs); type: functional, organism-based
Histamine H3 receptor [2] = target: T1, Histamine H3 receptor (Homo sapiens, UniProt Q9Y5N1); experiment: Displacement of [3H]N-alpha-methylhistamine from full length human H3 receptor expressed in HEK293 cell membranes after 90 mins
Histamine H3 receptor [3] = target: T1, Histamine H3 receptor; experiment: Antagonist activity at human H3 receptor expressed in HEK293 cells assessed as inhibition of RAMH-induced reduction of forskolin-stimulated cAMP accumulation after 30 mins by Ulight-based TR-FRET assay; type: functional, cell-based
Rattus norvegicus [4] = experiment: In vivo antagonist activity at H3 receptor in RAMH-induced dipsogenic ip dosed Wistar (Krf:(WI) WU) rat model assessed as inhibition of RAMH-water intake administered 30 mins prior to RAMH induction; type: functional
Rattus norvegicus [5] = experiment: Anticonvulsant activity in Sprague-Dawley rat assessed as protection against maximal electroshock-induced seizures at 30 mg/kg, ip after 1 hr; type: functional, organism-based
Mus musculus [6] = experiment: Anticonvulsant activity in albino CF-1 mouse assessed as protection against maximal electroshock-induced seizures at 50 mg/kg, ip after 0.25 hrs; type: functional, organism-based
Mus musculus [7] = experiment: Anticonvulsant activity in albino CF-1 mouse assessed as protection against maximal electroshock-induced seizures at 50 mg/kg, ip after 4 hrs; type: functional, organism-based
Mus musculus [8] = experiment: Neurotoxicity in albino CF-1 mouse assessed as increase in subcutaneous pentylenetetrazole-induced continuous seizures at 50 mg/kg, ip measured after 0.5 hrs; type: toxicity, organism-based; conditions: in vivo
Mus musculus [9] = experiment: Neurotoxicity in albino CF-1 mouse assessed as increase in subcutaneous pentylenetetrazole-induced continuous seizures at 50 mg/kg, ip measured after 1 hr; type: toxicity, organism-based; conditions: in vivo
Mus musculus [10] = experiment: Neurotoxicity in albino CF-1 mouse assessed as increase in subcutaneous pentylenetetrazole-induced continuous seizures at 50 mg/kg, ip measured after 2 hrs; type: toxicity, organism-based; conditions: in vivo
Mus musculus [11] = experiment: Anticonvulsant activity in albino CF-1 mouse assessed as protection against subcutaneous pentylenetetrazole-induced seizures at 50 mg/kg, ip measured after 4 hrs; type: functional, organism-based
Mus musculus [12] = experiment: Neurotoxicity in albino CF-1 mouse at 50 mg/kg, ip after 2 hrs by rotarod test; type: toxicity, organism-based; conditions: in vivo
Rattus norvegicus [13] = experiment: Anticonvulsant activity in Sprague-Dawley rat assessed as protection against maximal electroshock-induced seizures at 30 mg/kg, ip after 2 hrs; type: functional, organism-based
Rattus norvegicus [14] = experiment: Anticonvulsant activity in Sprague-Dawley rat assessed as protection against maximal electroshock-induced seizures at 30 mg/kg, po after 0.25 hrs; type: functional, organism-based
Rattus norvegicus [15] = experiment: Anticonvulsant activity in Sprague-Dawley rat assessed as protection against maximal electroshock-induced seizures at 30 mg/kg, po after 2 hrs; type: functional, organism-based
Rattus norvegicus [16] = experiment: Anticonvulsant activity in Sprague-Dawley rat assessed as protection against maximal electroshock-induced seizures at 65 mg/kg, po after 0.25 hrs; type: functional, organism-based
Mus musculus [17] = experiment: Neurotoxicity in albino CF-1 mouse at 65 mg/kg after 0.5 hrs by rotarod test; type: toxicity, organism-based; conditions: in vivo
Mus musculus [18] = experiment: Neurotoxicity in albino CF-1 mouse at 65 mg/kg after 1 hr by rotarod test; type: toxicity, organism-based; conditions: in vivo
Mus musculus [19] = experiment: Neurotoxicity in albino CF-1 mouse at 50 mg/kg after 1 hr by rotarod test; type: toxicity, organism-based; conditions: in vivo
Mus musculus [20] = experiment: Neurotoxicity in albino CF-1 mouse at 50 mg/kg after 2 hrs by rotarod test; type: toxicity, organism-based; conditions: in vivo
Mus musculus [21] = experiment: Anticonvulsant activity in albino CF-1 mouse assessed as protection against 44 mA current-induced seizure at 50 mg/kg, ip after 0.25 hrs by 6 Hz psychomotor test; type: functional, organism-based
Mus musculus [22] = experiment: Anticonvulsant activity in albino CF-1 mouse assessed as protection against 44 mA current-induced seizure at 50 mg/kg, ip after 2 hrs by 6 Hz psychomotor test; type: functional, organism-based
Mus musculus [23] = experiment: Anticonvulsant activity in albino CF-1 mouse assessed as protection against 44 mA current-induced seizure at 50 mg/kg, ip after 4 hrs by 6 Hz psychomotor test; type: functional, organism-based
Mus musculus [24] = experiment: Neurotoxicity in albino CF-1 mouse at 50 mg/kg after 0.25 hrs by rotarod test; type: toxicity, organism-based; conditions: in vivo
Rattus norvegicus [25] = experiment: Anticonvulsant activity in ip dosed Sprague-Dawley rat assessed as protection against maximal electroshock-induced seizures after 0.25 hrs; type: functional
Rattus norvegicus [26] = experiment: Anticonvulsant activity in po dosed Sprague-Dawley rat assessed as protection against maximal electroshock-induced seizures after 1 hr; type: functional
Mus musculus [27] = experiment: Anticonvulsant activity in ip dosed albino CF-1 mouse assessed as protection against subcutaneous pentylenetetrazole-induced seizures measured after 1 hr; type: functional; conditions: CF-1, 1 h
Mus musculus [28] = experiment: Anticonvulsant activity in ip dosed albino CF-1 mouse assessed as protection against 32 mA current-induced seizure after 1 hr by 6 Hz psychomotor test; type: functional; conditions: CF-1, ip
[29] = Therapeutic index, ratio of ip dosed albino CF-1 mouse TD50 to ip dosed albino CF-1 mouse ED50 for MES assay; type: toxicity, organism-based; conditions: in vivo, read-out: TI
[30] = Therapeutic index, ratio of ip dosed Sprague-Dawley rat TD50 to ip dosed Sprague-Dawley rat ED50 for MES assay; type: toxicity, organism-based; conditions: in vivo, read-out: TI
[31] = Therapeutic index, ratio of po dosed Sprague-Dawley rat TD50 to po dosed Sprague-Dawley rat ED50 for MES assay; type: toxicity, organism-based; conditions: in vivo, read-out: TI
Mus musculus [32] = experiment: Effect on spontaneous locomotor activity in ip dosed albino Swiss CD1 mouse assessed as inhibition of number of light beam crossings treated for 30 mins measured for next 30 mins in 10 min intervals; type: organism-based; conditions: in vivo, 0.5 h
[33] = target: D(1A) dopamine receptor (Homo sapiens) (UniProt P21728); experiment: Displacement of [3H]-SCH23390 from human dopamine D1 receptor expressed in HEK293 cell membranes at 1 uM relative to fluphenazin
[34] = target: D(2) dopamine receptor (Homo sapiens) (UniProt P14416); experiment: Displacement of [3H]-spiperone from human dopamine D2 receptor expressed in CHO cell membranes at 1 uM relative to haloperidol
[35] = target: D(3) dopamine receptor (Homo sapiens) (UniProt P35462); experiment: Displacement of [3H]-spiperone from human dopamine D3 receptor expressed in CHO cell membranes at 1 uM relative to haloperidol
[36] = target: 5-hydroxytryptamine receptor 2A (Homo sapiens, UniProt P28223); experiment: Displacement of [3H]-ketanserin from human 5-HT2A receptor expressed in CHO cell membranes after 1 hr
[37] = target: 5-hydroxytryptamine receptor 6 (Homo sapiens, UniProt P50406); experiment: Displacement of [3H]-LSD from human 5-HT6 receptor expressed in HEK293 cell membranes after 1 hr
HEK293 = experiment: Cytotoxicity against HEK293 cells assessed as reduction in cell viability after 72 hrs by MTS assay; type: cell-based; conditions: Homo sapiens, HEK293, 72 h
IMR-32 = experiment: Cytotoxicity against human IMR32 cells assessed as reduction in cell viability after 72 hrs by MTS assay; type: cell-based; conditions: IMR-32, 72 h
HepG2 = experiment: Cytotoxicity against human HepG2 cells assessed as reduction in cell viability after 72 hrs by MTS assay; type: cell-based; conditions: HepG2, 72 h
Salmonella typhimurium = experiment: Mutagenicity in Salmonella typhimurium TA100 assessed as increase in number of revertants at 10 uM after 90 mins by Ames test; type: toxicity, organism-based; conditions: salmonella enterica subsp. enterica serovar typhimurium, 1.5 h

T1 sequence (Q9Y5N1 whole entry): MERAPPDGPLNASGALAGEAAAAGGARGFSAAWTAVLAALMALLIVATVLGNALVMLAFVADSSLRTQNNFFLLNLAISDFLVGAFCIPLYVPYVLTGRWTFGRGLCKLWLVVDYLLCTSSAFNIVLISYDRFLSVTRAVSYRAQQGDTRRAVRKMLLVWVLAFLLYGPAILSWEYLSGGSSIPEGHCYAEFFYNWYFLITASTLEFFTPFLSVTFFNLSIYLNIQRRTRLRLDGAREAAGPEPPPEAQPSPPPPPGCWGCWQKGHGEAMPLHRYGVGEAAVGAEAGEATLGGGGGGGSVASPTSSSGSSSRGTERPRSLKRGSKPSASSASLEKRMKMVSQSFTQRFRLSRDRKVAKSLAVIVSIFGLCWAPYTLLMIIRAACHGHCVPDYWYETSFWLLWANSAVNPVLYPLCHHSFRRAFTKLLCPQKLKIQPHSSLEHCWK
Sequence of D(1A) dopamine receptor (Homo sapiens) (P21728 whole entry): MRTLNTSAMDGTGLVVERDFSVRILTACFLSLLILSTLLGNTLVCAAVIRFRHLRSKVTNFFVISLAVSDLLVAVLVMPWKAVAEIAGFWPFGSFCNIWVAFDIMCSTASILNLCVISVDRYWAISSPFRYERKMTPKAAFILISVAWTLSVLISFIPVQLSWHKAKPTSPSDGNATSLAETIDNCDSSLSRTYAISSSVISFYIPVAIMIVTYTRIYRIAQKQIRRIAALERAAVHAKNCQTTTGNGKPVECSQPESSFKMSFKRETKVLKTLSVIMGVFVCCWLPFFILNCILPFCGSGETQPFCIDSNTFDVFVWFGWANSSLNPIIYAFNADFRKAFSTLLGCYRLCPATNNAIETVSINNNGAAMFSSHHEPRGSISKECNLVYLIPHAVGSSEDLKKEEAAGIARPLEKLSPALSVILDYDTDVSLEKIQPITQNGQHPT
Sequence of 5-hydroxytryptamine receptor 2A (P28223 whole entry): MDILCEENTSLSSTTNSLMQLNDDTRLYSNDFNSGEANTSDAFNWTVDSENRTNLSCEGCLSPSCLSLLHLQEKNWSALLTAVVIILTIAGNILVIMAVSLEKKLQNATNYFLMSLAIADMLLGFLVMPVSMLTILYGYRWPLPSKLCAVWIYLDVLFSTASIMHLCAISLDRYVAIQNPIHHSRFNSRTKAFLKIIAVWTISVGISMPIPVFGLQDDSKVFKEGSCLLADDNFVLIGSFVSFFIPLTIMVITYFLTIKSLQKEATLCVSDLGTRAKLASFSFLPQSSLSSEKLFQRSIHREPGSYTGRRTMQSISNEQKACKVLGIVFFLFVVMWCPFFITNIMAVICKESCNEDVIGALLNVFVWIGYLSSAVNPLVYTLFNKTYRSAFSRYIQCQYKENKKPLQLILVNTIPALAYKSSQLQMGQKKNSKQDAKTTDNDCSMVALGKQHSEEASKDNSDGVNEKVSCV
Sequence of 5-hydroxytryptamine receptor 6 (P50406 whole entry): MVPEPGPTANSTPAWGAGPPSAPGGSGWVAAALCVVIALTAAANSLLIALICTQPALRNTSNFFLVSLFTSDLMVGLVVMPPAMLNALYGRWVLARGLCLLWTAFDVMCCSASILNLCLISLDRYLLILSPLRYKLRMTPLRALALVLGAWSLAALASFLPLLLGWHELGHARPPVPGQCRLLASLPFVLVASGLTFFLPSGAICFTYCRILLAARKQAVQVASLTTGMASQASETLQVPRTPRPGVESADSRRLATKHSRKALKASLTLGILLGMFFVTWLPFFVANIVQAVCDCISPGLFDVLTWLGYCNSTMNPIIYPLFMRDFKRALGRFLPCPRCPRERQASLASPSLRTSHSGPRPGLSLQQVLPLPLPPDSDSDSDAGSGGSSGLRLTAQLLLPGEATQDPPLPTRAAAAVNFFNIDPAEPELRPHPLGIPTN
Sequence of D(2) dopamine receptor (Homo sapiens) (P14416 whole entry): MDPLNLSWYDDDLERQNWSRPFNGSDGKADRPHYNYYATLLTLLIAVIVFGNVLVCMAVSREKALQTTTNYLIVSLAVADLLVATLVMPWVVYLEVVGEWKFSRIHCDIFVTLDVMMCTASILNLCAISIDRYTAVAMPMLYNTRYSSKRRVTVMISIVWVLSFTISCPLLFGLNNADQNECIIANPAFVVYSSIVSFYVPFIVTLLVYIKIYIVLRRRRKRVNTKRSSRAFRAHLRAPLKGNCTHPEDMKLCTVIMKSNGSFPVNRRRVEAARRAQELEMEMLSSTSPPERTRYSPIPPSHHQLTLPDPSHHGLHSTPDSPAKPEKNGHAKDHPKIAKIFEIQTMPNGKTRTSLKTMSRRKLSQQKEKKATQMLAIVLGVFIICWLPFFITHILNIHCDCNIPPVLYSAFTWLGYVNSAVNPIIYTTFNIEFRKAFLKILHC
Sequence of D(3) dopamine receptor (Homo sapiens) (P35462 whole entry): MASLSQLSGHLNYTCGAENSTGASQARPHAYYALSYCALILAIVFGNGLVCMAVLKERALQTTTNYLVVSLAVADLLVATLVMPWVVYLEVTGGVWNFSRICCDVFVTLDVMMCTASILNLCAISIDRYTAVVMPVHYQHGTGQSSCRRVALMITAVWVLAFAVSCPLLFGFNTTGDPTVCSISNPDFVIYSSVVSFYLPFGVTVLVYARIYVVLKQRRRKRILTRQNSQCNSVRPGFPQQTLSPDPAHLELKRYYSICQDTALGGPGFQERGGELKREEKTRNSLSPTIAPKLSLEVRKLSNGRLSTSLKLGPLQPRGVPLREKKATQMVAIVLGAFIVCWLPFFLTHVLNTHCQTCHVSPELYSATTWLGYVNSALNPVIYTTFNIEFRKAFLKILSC

Ki (Histamine H3 receptor [2]): 53.9 nM | IC50 (Histamine H3 receptor [3]): 165 nM | inhibition (Histamine H3 receptor [3]): Dose-dependent effect | ED50 (Mus musculus [32]): 11.43 mg/kg | inhibition [33]: 6.7% | inhibition [34]: 2% | inhibition [35]: 12% | Ki [36]: 3900 nM | Ki [37]: 2540 nM
SMILES: c1ccc2c(OCCCCCN3CCCCC3)cccc2c1
Activity (Mus musculus [1]): Active | ED50 (Rattus norvegicus [4]): 2.37 mg/kg | Activity (Rattus norvegicus [5]): Active | Activity (Mus musculus [6]): Active | Activity (Mus musculus [7]): inactive | Activity (Mus musculus [8]): Non-Toxic | Activity (Mus musculus [9]): Non-Toxic | Activity (Mus musculus [10]): Non-Toxic | Activity (Mus musculus [11]): inactive | Activity (Mus musculus [12]): Non-Toxic | Activity (Rattus norvegicus [13]): Active | Activity (Rattus norvegicus [14]): inactive | Activity (Rattus norvegicus [15]): inactive | Activity (Rattus norvegicus [16]): inactive | Activity (Mus musculus [17]): Non-Toxic | Activity (Mus musculus [18]): Non-Toxic | Activity (Mus musculus [19]): Non-Toxic | Activity (Mus musculus [20]): Non-Toxic | Activity (Mus musculus [21]): inactive | Activity (Mus musculus [22]): inactive | Activity (Mus musculus [23]): inactive | Activity (Mus musculus [24]): Non-Toxic | ED50 (Rattus norvegicus [25]): 17.8 mg/kg | ED50 (Rattus norvegicus [26]): 78.1 mg/kg | ED50 (Mus musculus [27]): > 100 mg/kg | ED50 (Mus musculus [28]): 33.1 mg/kg | selectivity ratio [29]: 4.9 | selectivity ratio [30]: 3.4 | selectivity ratio [31]: > 6.4 | IC50 (HEK293): > 50000 nM | IC50 (IMR-32): > 50000 nM | IC50 (HepG2): > 50000 nM | Activity (Salmonella typhimurium): Non-Toxic

Source: ChEMBL document CHEMBL4118139, “Novel naphthyloxy derivatives - Potent histamine H3 receptor ligands. Synthesis and pharmacological evaluation” (Bioorg Med Chem, 2018)
